Reference: ChEMBL document CHEMBL5608208, “Design, synthesis of griseofamine A derivatives and development of potent antibacterial agents against MRSA” (Eur J Med Chem, 2024)
Values after ≈ are worked out from the molar mass of the structure shown.

Key:
Assay type in all cases: functional
Staphylococcus aureus [1] = experiment: Antibacterial activity against Staphylococcus aureus ATCC 29213 incubated for 18 hrs by serial two-fold dilution method
[2] = system: Staphylococcus epidermidis; experiment: Antibacterial activity against Staphylococcus epidermidis ATCC 12228 incubated for 18 hrs by serial two-fold dilution method
Staphylococcus aureus [3] = experiment: Antibacterial activity against methicillin resistant Staphylococcus aureus ATCC 33592 incubated for 18 hrs by serial two-fold dilution method
Staphylococcus aureus [4] = experiment: Antibacterial activity against methicillin resistant Staphylococcus aureus ATCC 43300 incubated for 18 hrs by serial two-fold dilution method

Row | SMILES | MIC (Staphylococcus aureus [1]) [µg/mL] | MIC [2] [µg/mL] | MIC (Staphylococcus aureus [3]) [µg/mL] | MIC (Staphylococcus aureus [4]) [µg/mL]
1 | C/C(O)=C1\C(=O)[C@@H]2Cc3c([nH]c4ccccc34)[C@@H](c3ccc(-c4ccc(C(F)(F)F)cc4)o3)N2C1=O | 0.25 (≈ 0.508 µM) | 0.25 (≈ 0.508 µM) | 0.25 (≈ 0.508 µM) | 0.25 (≈ 0.508 µM)
2 | C/C(N)=C1\C(=O)[C@@H]2Cc3c([nH]c4ccccc34)[C@@H](c3ccc(-c4ccc(OC(F)(F)F)cc4)cc3)N2C1=O | 4 (≈ 7.73 µM) | 4 (≈ 7.73 µM) | 4 (≈ 7.73 µM) | –
3 | O=C1CC(=O)N2[C@H](c3ccc(-c4cc(F)cc(F)c4)cc3)c3[nH]c4ccccc4c3C[C@@H]12 | > 4 | > 4 | 4 (≈ 9.34 µM) | –
4 | C/C(O)=C1\C(=O)[C@@H]2Cc3c([nH]c4ccccc34)[C@@H](c3ccc(C(F)(F)F)cc3)N2C1=O | 2 (≈ 4.69 µM) | – | – | –
5 | C/C(O)=C1\C(=O)[C@@H]2Cc3c(n(CC4CC4)c4ccccc34)[C@@H](c3ccc(-c4ccc(F)cc4)cc3)N2C1=O | 0.125 (≈ 0.247 µM) | 0.25 (≈ 0.494 µM) | 0.125 (≈ 0.247 µM) | 0.125 (≈ 0.247 µM)
6 | COc1ccc([C@H]2c3[nH]c4ccccc4c3C[C@H]3C(=O)/C(=C(\C)O)C(=O)N23)cc1 | 8 (≈ 20.6 µM) | – | – | –
7 | COC(=O)[C@@H]1Cc2c([nH]c3ccccc23)[C@@H](C)N1 | > 128 | – | – | –
8 | C/C(O)=C1\C(=O)[C@@H]2Cc3c([nH]c4ccccc34)[C@@H](c3ccc(-c4cccc(C(F)(F)F)c4)cc3)N2C1=O | 0.5 (≈ 0.995 µM) | 0.063 (≈ 0.125 µM) | 0.5 (≈ 0.995 µM) | –
9 | CCc1ccc(-c2ccc([C@@H]3c4[nH]c5ccccc5c4C[C@H]4C(=O)/C(=C(\C)O)C(=O)N34)cc2)cc1 | 0.5 (≈ 1.08 µM) | 0.25 (≈ 0.54 µM) | 0.25 (≈ 0.54 µM) | 0.25 (≈ 0.54 µM)
10 | O=C(OC1=CC(=O)N2[C@H](c3ccc(-c4cc(F)cc(F)c4)cc3)c3[nH]c4ccccc4c3C[C@@H]12)c1ccc2ccccc2c1 | 4 (≈ 6.87 µM) | > 4 | 2 (≈ 3.43 µM) | –
11 | O=C1/C(=C(/O)c2ccc3ccccc3c2)C(=O)N2[C@H](c3ccc(-c4cc(F)cc(F)c4)cc3)c3[nH]c4ccccc4c3C[C@@H]12 | 4 (≈ 6.87 µM) | 2 (≈ 3.43 µM) | 2 (≈ 3.43 µM) | –
12 | O=C(OC1=CC(=O)N2[C@H](c3ccc(-c4cc(F)cc(F)c4)cc3)c3[nH]c4ccccc4c3C[C@@H]12)c1ccccc1 | > 4 | > 4 | > 4 | –
13 | O=C(OC1=CC(=O)N2[C@H](c3ccc(-c4cc(F)cc(F)c4)cc3)c3[nH]c4ccccc4c3C[C@@H]12)c1ccc(F)cc1 | > 4 | > 4 | > 4 | –
14 | C/C(O)=C1\C(=O)[C@@H]2Cc3c([nH]c4ccccc34)[C@@H](c3ccc(-c4cccc(F)c4)cc3)N2C1=O | 0.125 (≈ 0.276 µM) | 0.25 (≈ 0.553 µM) | 0.25 (≈ 0.553 µM) | –
15 | C/C(O)=C1\C(=O)[C@@H]2Cc3c([nH]c4ccccc34)[C@@H](c3ccc(-c4ccc(C(F)(F)F)cc4)cc3)N2C1=O | 0.063 (≈ 0.125 µM) | 0.063 (≈ 0.125 µM) | 0.25 (≈ 0.498 µM) | –
16 | C/C(O)=C1\C(=O)[C@@H]2Cc3c([nH]c4ccccc34)[C@@H](c3ccc(-c4cc(C(F)(F)F)cc(C(F)(F)F)c4)cc3)N2C1=O | 1 (≈ 1.75 µM) | 1 (≈ 1.75 µM) | 1 (≈ 1.75 µM) | –
17 | C/C(N)=C1\C(=O)[C@@H]2Cc3c([nH]c4ccccc34)[C@@H](c3ccc(-c4ccccc4)cc3)N2C1=O | > 4 | > 4 | > 4 | –
18 | C/C(O)=C1\C(=O)[C@@H]2Cc3c([nH]c4ccccc34)[C@H](c3ccccc3)N2C1=O | 16 (≈ 44.6 µM) | – | – | –
19 | C/C(O)=C1\C(=O)[C@@H]2Cc3c([nH]c4ccccc34)[C@@H](c3ccc(-c4ccc(F)cc4)cc3)N2C1=O | 0.063 (≈ 0.139 µM) | 0.125 (≈ 0.276 µM) | 0.125 (≈ 0.276 µM) | –

Row | SMILES | MIC (Staphylococcus aureus [1]) [µg/mL] | MIC [2] [µg/mL] | MIC (Staphylococcus aureus [3]) [µg/mL] | MIC (Staphylococcus aureus [4]) [µg/mL]
20 | C/C(O)=C1\C(=O)[C@@H]2Cc3c([nH]c4ccccc34)[C@@H](c3ccc(C(C)(C)C)cc3)N2C1=O | 4 (≈ 9.65 µM) | – | – | –
21 | C/C(O)=C1\C(=O)[C@@H]2Cc3c([nH]c4ccccc34)[C@@H](c3ccc(C)cc3)N2C1=O | 4 (≈ 10.7 µM) | – | – | –
22 | CCn1c2c(c3ccccc31)C[C@H]1C(=O)/C(=C(\C)O)C(=O)N1[C@@H]2c1ccc(-c2ccc(F)cc2)cc1 | 0.25 (≈ 0.52 µM) | 0.25 (≈ 0.52 µM) | 0.25 (≈ 0.52 µM) | 0.125 (≈ 0.26 µM)
23 | C/C(O)=C1\C(=O)[C@@H]2Cc3c([nH]c4ccccc34)CN2C1=O | 128 (≈ 453 µM) | – | – | –
24 | O=C1/C(=C(/O)c2ccc(F)cc2)C(=O)N2[C@H](c3ccc(-c4cc(F)cc(F)c4)cc3)c3[nH]c4ccccc4c3C[C@@H]12 | 0.5 (≈ 0.908 µM) | 0.5 (≈ 0.908 µM) | 0.5 (≈ 0.908 µM) | –
25 | CC(C)=CCc1cccc2[nH]c3c(c12)C[C@H]1C(=O)/C(=C(\C)O)C(=O)N1[C@@H]3C | 8 (≈ 22 µM) | 8 (≈ 22 µM) | 8 (≈ 22 µM) | 8 (≈ 22 µM)
26 | C/C(O)=C1\C(=O)[C@@H]2Cc3c(n(S(=O)(=O)c4ccc(C)cc4)c4ccccc34)[C@@H](c3ccc(-c4ccc(C)cc4)cc3)N2C1=O | 8 (≈ 13.3 µM) | 2 (≈ 3.32 µM) | 8 (≈ 13.3 µM) | –
27 | C/C(O)=C1\C(=O)[C@@H]2Cc3c([nH]c4ccccc34)[C@@H](c3ccc(-c4ccc(F)cc4F)cc3)N2C1=O | 0.125 (≈ 0.266 µM) | 0.25 (≈ 0.531 µM) | 0.25 (≈ 0.531 µM) | 0.125 (≈ 0.266 µM)
28 | O=C1CC(=O)N2[C@H](c3ccc(-c4ccc(C(F)(F)F)cc4)cc3)c3[nH]c4ccccc4c3C[C@@H]12 | > 4 | 4 (≈ 8.69 µM) | > 4 | –
29 | C/C(O)=C1\C(=O)[C@@H]2Cc3c([nH]c4ccccc34)[C@@H](c3ccc(-c4ccc(F)cc4)o3)N2C1=O | 0.5 (≈ 1.13 µM) | 0.5 (≈ 1.13 µM) | 0.5 (≈ 1.13 µM) | 0.5 (≈ 1.13 µM)
30 | CC[C@@H]1c2[nH]c3ccccc3c2C[C@H]2C(=O)/C(=C(\C)O)C(=O)N12 | > 128 | – | – | –
31 | C/C(O)=C1\C(=O)[C@@H]2Cc3c([nH]c4ccccc34)[C@@H](c3ccc(F)cc3F)N2C1=O | 8 (≈ 20.3 µM) | – | – | –
32 | C/C(O)=C1\C(=O)[C@@H]2Cc3c([nH]c4ccccc34)[C@@H](Cc3ccccc3)N2C1=O | 32 (≈ 85.9 µM) | – | – | –
33 | O=C1/C(=C(/O)c2ccccc2)C(=O)N2[C@H](c3ccc(-c4cc(F)cc(F)c4)cc3)c3[nH]c4ccccc4c3C[C@@H]12 | 0.25 (≈ 0.469 µM) | 0.25 (≈ 0.469 µM) | 0.125 (≈ 0.235 µM) | 0.125 (≈ 0.235 µM)
34 | O=C1/C(=C(/O)c2cccs2)C(=O)N2[C@H](c3ccc(-c4cc(F)cc(F)c4)cc3)c3[nH]c4ccccc4c3C[C@@H]12 | 0.25 (≈ 0.464 µM) | 0.25 (≈ 0.464 µM) | 0.25 (≈ 0.464 µM) | 0.125 (≈ 0.232 µM)
35 | Cc1ccc(C(=O)OC2=CC(=O)N3[C@H](c4ccc(-c5cc(F)cc(F)c5)cc4)c4[nH]c5ccccc5c4C[C@@H]23)cc1 | > 4 | > 4 | > 4 | –
36 | O=C(OC1=CC(=O)N2[C@H](c3ccc(-c4cc(F)cc(F)c4)cc3)c3[nH]c4ccccc4c3C[C@@H]12)c1cccs1 | > 4 | > 4 | > 4 | –
37 | C/C(O)=C1\C(=O)[C@@H]2Cc3c(n(S(=O)(=O)c4ccc(C)cc4)c4ccccc34)[C@@H](c3ccc(-c4ccc(F)cc4)cc3)N2C1=O | 2 (≈ 3.3 µM) | 0.25 (≈ 0.412 µM) | 2 (≈ 3.3 µM) | –
38 | C/C(O)=C1\C(=O)[C@@H]2Cc3c([nH]c4ccccc34)[C@@H](c3ccc(-c4ccccc4F)cc3)N2C1=O | 0.125 (≈ 0.276 µM) | 0.25 (≈ 0.553 µM) | 0.25 (≈ 0.553 µM) | 0.25 (≈ 0.553 µM)

Row | SMILES | MIC (Staphylococcus aureus [1]) [µg/mL] | MIC [2] [µg/mL] | MIC (Staphylococcus aureus [3]) [µg/mL] | MIC (Staphylococcus aureus [4]) [µg/mL]
39 | CCC(=O)OC1=CC(=O)N2[C@H](c3ccc(-c4cc(F)cc(F)c4)cc3)c3[nH]c4ccccc4c3C[C@@H]12 | > 4 | > 4 | > 4 | –
40 | C/C(O)=C1\C(=O)[C@@H]2Cc3c([nH]c4ccccc34)[C@@H](c3ccc(-c4ccccc4C)cc3)N2C1=O | 0.125 (≈ 0.279 µM) | 0.5 (≈ 1.11 µM) | 0.25 (≈ 0.557 µM) | –
41 | C/C(O)=C1\C(=O)[C@@H]2Cc3c([nH]c4ccccc34)[C@H](c3cccc(F)c3)N2C1=O | 32 (≈ 85 µM) | – | – | –
42 | COc1ccc([C@@H]2c3[nH]c4ccccc4c3C[C@H]3C(=O)/C(=C(\C)O)C(=O)N23)cc1 | 4 (≈ 10.3 µM) | – | – | –
43 | C/C(O)=C1\C(=O)[C@@H]2Cc3c([nH]c4ccccc34)[C@H](c3ccc(C(F)(F)F)cc3)N2C1=O | 16 (≈ 37.5 µM) | – | – | –
44 | C/C(O)=C1\C(=O)[C@@H]2Cc3c([nH]c4ccccc34)[C@@H](c3cccc(F)c3)N2C1=O | 8 (≈ 21.3 µM) | – | – | –
45 | C/C(O)=C1\C(=O)[C@@H]2Cc3c([nH]c4ccccc34)[C@@H](c3ccc(-c4cc(F)c(F)c(F)c4)cc3)N2C1=O | 0.5 (≈ 1.02 µM) | 1 (≈ 2.05 µM) | 1 (≈ 2.05 µM) | –
46 | CC(=O)OC1=CC(=O)N2[C@H](c3ccc(-c4cc(F)cc(F)c4)cc3)c3[nH]c4ccccc4c3C[C@@H]12 | > 4 | > 4 | > 4 | –
47 | O=C1CC(=O)N2[C@H](c3ccc(-c4ccc(OC(F)(F)F)cc4)cc3)c3[nH]c4ccccc4c3C[C@@H]12 | > 4 | > 4 | > 4 | –
48 | C/C(O)=C1\C(=O)[C@@H]2Cc3c(n(C)c4ccccc34)[C@@H](c3ccc(-c4ccc(F)cc4)cc3)N2C1=O | 0.25 (≈ 0.536 µM) | 0.063 (≈ 0.135 µM) | 0.5 (≈ 1.07 µM) | –
49 | C/C(O)=C1\C(=O)[C@@H]2Cc3c([nH]c4ccccc34)[C@@H](c3ccc(F)cc3)N2C1=O | 4 (≈ 10.6 µM) | – | – | –
50 | O=C1CC(=O)N2[C@H](c3ccc(-c4ccc(F)cc4)cc3)c3[nH]c4ccccc4c3C[C@@H]12 | > 4 | > 4 | > 4 | –
51 | C/C(O)=C1\C(=O)[C@@H]2Cc3c([nH]c4ccccc34)[C@@H](c3ccccn3)N2C1=O | 64 (≈ 178 µM) | – | – | –
52 | C/C(O)=C1\C(=O)[C@@H]2Cc3c([nH]c4ccccc34)[C@@H](c3ccc4ccccc4c3)N2C1=O | 8 (≈ 19.6 µM) | – | – | –
53 | Cc1ccc(/C(O)=C2\C(=O)[C@@H]3Cc4c([nH]c5ccccc45)[C@@H](c4ccc(-c5cc(F)cc(F)c5)cc4)N3C2=O)cc1 | 0.5 (≈ 0.915 µM) | 0.25 (≈ 0.457 µM) | 0.5 (≈ 0.915 µM) | –
54 | C/C(O)=C1\C(=O)[C@@H]2Cc3c([nH]c4ccccc34)[C@@H](c3ccc(-c4ccc(C)cc4)cc3)N2C1=O | 0.125 (≈ 0.279 µM) | 0.25 (≈ 0.557 µM) | 0.25 (≈ 0.557 µM) | 0.125 (≈ 0.279 µM)
55 | C/C(O)=C1\C(=O)[C@@H]2Cc3c([nH]c4ccccc34)[C@@H](c3ccccc3)N2C1=O | 8 (≈ 22.3 µM) | – | – | –
56 | C/C(O)=C1\C(=O)[C@@H]2Cc3c([nH]c4ccccc34)[C@@H](C)N2C1=O | > 128 | – | – | –
